{"source": "PubChem BioAssay AID1996"}
{"conditions": "buffer; pH 7.4; 200.0 µM", "units": {"solubility kinetic": "µg/mL"}}
{"smiles": "Cc1noc(C)c1COc1ccc(C(=O)N2CCN(S(=O)(=O)c3cccc(F)c3)CC2)cc1", "solubility kinetic": 25.1}
{"smiles": "CCNc1nc(NCc2ccccc2)nc(SCC(N)=O)n1", "solubility kinetic": 42.2}
{"smiles": "NS(=O)(=O)c1cccc(NS(=O)(=O)c2cccc(C(F)(F)F)c2)c1", "solubility kinetic": "> 57.1"}
{"smiles": "Cc1ccc(O)c(C(=O)c2cnc(/N=C(\\N)N(C)C)nc2)c1", "solubility kinetic": 41.1}
{"smiles": "O=C(Cn1nc(C(F)F)cc1C1CC1)N1CCCC1", "solubility kinetic": "> 40.4"}
{"smiles": "Cc1cc(C(=O)Nc2ccccc2C)on1", "solubility kinetic": "> 32.4"}
{"smiles": "COc1cc2c(cc1OC)CN(CC(=O)Nc1cccc([N+](=O)[O-])c1)CC2", "solubility kinetic": 14.9}
{"smiles": "COc1ccc(/C=C/C(=O)NCCN2CCOCC2)cc1OC", "solubility kinetic": "> 48.1"}
{"smiles": "Cc1cccc(NC(=S)NC2CC3C=CC2C3)c1", "note": "(centres undefined)", "solubility kinetic": 6.2}
{"smiles": "Cc1cccc(NC(=O)c2ccccc2C(=O)Nc2cccc(C)c2)c1", "solubility kinetic": 3}
{"smiles": "O=C(COC(=O)c1ccc(C(F)(F)F)cc1)Nc1cccc(S(=O)(=O)NC2=NCCCCC2)c1", "solubility kinetic": 10.5}
{"smiles": "O=C(Nc1ccccc1)C1C2CCCCC21", "note": "(centres undefined)", "solubility kinetic": 1.9}
{"smiles": "Cc1cc(OCCN2CCOCC2)ccc1Cl", "solubility kinetic": 25.9}
{"smiles": "CC(=O)c1cccc(NC(=O)c2ccc3c(c2)CCCC3)c1", "solubility kinetic": 0.8}
{"smiles": "CC(C)CCn1cnc2c1c(=O)[nH]c(=O)n2Cc1ccccc1", "solubility kinetic": 29.8}
{"smiles": "NC(=O)C1CCCN1S(=O)(=O)c1ccc2ccccc2c1", "note": "(centres undefined)", "solubility kinetic": "> 45.7"}
{"smiles": "CCC1(CC)Nc2ccccc2C(=O)N1c1ccc(OC)cc1", "solubility kinetic": 16.5}
{"smiles": "COc1cccc(-c2nc(NC3CCCC3)c3ccccc3n2)c1O", "solubility kinetic": "< 0.2"}
{"smiles": "O=C1CN(C(=O)CNCc2ccc(Cl)cc2)c2ccccc2N1", "solubility kinetic": 39.7}
{"smiles": "O=C(Nc1ccncc1)c1cc2ccccc2cc1O", "solubility kinetic": 5.6}
{"smiles": "COc1cc2c(cc1OC)C(c1ccccc1Br)NC(=O)C2", "note": "(centres undefined)", "solubility kinetic": "> 54.3"}
{"smiles": "COc1ccccc1Cn1c(C(C)C)nc2ccccc21", "solubility kinetic": "> 42.1"}
{"smiles": "CN(C(=S)NC(=O)c1ccc(F)cc1)C1CCCCC1", "solubility kinetic": 8.8}
{"smiles": "Cc1cc(C)c2c(CC(=O)NC3CCS(=O)(=O)C3)coc2c1", "note": "(centres undefined)", "solubility kinetic": 48.2}
{"smiles": "Cc1c(Cl)c(=O)oc2cc(OCC(=O)N3CCCC(C)C3)ccc12", "note": "(centres undefined)", "solubility kinetic": 38}
{"smiles": "O=C(COC(=O)Cc1ccc(Br)cc1)NCC1CCCO1", "note": "(centres undefined)", "solubility kinetic": "> 53.4"}
{"smiles": "COc1ccc(NC(=O)COC(=O)c2ccc3c(c2)OCO3)c(OC)c1", "solubility kinetic": 1.9}
{"smiles": "O=Cc1c[nH]c2ccc(OCc3ccccc3)cc12", "solubility kinetic": "< 0.5"}
{"smiles": "CCCc1cc(=O)[nH]c(SCC(=O)Nc2nonc2C)n1", "solubility kinetic": "> 46.4"}
{"smiles": "S=C(NCCc1ccc(Cl)cc1)NC1CCCCC1", "solubility kinetic": 4}
{"smiles": "Cn1c(=O)n(CC(N)=O)c(=O)c2c1nc1n2CCCN1Cc1ccccc1", "solubility kinetic": 30.8}
{"smiles": "O=C(NC(=S)NC1CCCc2ccccc21)c1ccc(F)cc1", "note": "(centres undefined)", "solubility kinetic": "< 0.4"}
{"smiles": "N#Cc1ccsc1NC(=O)CCS(=O)(=O)c1ccccc1", "solubility kinetic": 41.7}
{"smiles": "Cc1cccc(N2C(=O)/C(=C/c3ccccn3)SC2=S)c1", "solubility kinetic": "< 0.3"}
{"smiles": "CC1(C)CC(=O)c2sc(NS(=O)(=O)c3ccc(Cl)cc3)nc2C1", "solubility kinetic": "> 55.6"}
{"smiles": "CCCc1cc(=O)[nH]c(SCC(=O)Nc2sc3c(c2C(N)=O)CCCC3)n1", "solubility kinetic": 9}
{"smiles": "OC(CNc1ncnc2sccc12)c1ccccc1", "note": "(centres undefined)", "solubility kinetic": "> 40.7"}
{"smiles": "Cc1ccccc1CN1C(=O)c2ccccc2S1(=O)=O", "solubility kinetic": 2.5}
{"smiles": "Cc1cc(C(=O)NCCC(C)C)c2ccccc2n1", "solubility kinetic": 31}
{"smiles": "N#CC1=C(N)Oc2cc(N)ccc2C1c1ccccc1F", "note": "(centres undefined)", "solubility kinetic": 4.9}
{"smiles": "Cc1ccc(C2CCN(C(=S)NC3CCCCC3)C2)cc1", "note": "(centres undefined)", "solubility kinetic": 1.3}
{"smiles": "CN1CC(C#N)C2(O)c3ccccc3CCC2C1", "note": "(centres undefined)", "solubility kinetic": "> 36.3"}
{"smiles": "Cc1cc(SCc2cccc(Cl)c2)nc(=O)[nH]1", "solubility kinetic": 39.9}
{"smiles": "Cc1c(NC(=O)C(c2ccccc2)c2ccccc2)cccc1C(=O)O", "solubility kinetic": "> 51.8"}
{"smiles": "O=c1oc2ccccc2c(O)c1Cc1cc(Cl)c2cccnc2c1O", "solubility kinetic": "> 53.1"}
{"smiles": "O=C(/C=C/c1ccc(Cl)c(Cl)c1)N1CCOCC1", "solubility kinetic": 35.5}
{"smiles": "CC(C)(C)c1ccc(S(=O)(=O)Nc2noc3ccccc23)cc1", "solubility kinetic": "> 49.6"}
{"smiles": "O=S(=O)(NCCc1ccc(Cl)cc1)c1cccs1", "solubility kinetic": "> 45.3"}
{"smiles": "O/N=C/c1cc2ccccc2n1Cc1ccccc1F", "solubility kinetic": 0.5}
{"smiles": "O=[N+]([O-])c1ccc(Sc2cc[n+]([O-])c3ccccc23)c([N+](=O)[O-])c1", "solubility kinetic": 4.6}
{"smiles": "O=C(CN1CCS(=O)(=O)CC1)NNC(=O)C1CCCCC1", "solubility kinetic": "> 47.6"}
{"smiles": "O=S(=O)(NC(=S)c1ccccc1)c1ccc(Cl)cc1", "solubility kinetic": "> 46.8"}
{"smiles": "COc1cc(C2/C(=C(\\O)c3ccc4c(c3)OCCO4)C(=O)C(=O)N2Cc2ccco2)ccc1O", "note": "(centres undefined)", "solubility kinetic": 66.7}
{"smiles": "O=C(N/C(=C\\c1ccccc1)C(=O)N1CCCCC1)c1ccc(Br)o1", "solubility kinetic": "> 60.5"}
{"smiles": "Cc1nc(NC(=O)CSc2nnc(C3CC3)n2N)c(Cl)cc1Cl", "solubility kinetic": "> 56"}
{"smiles": "CSc1nc2c(c(=O)[nH]c(=O)n2C)n1Cc1ccc(Cl)cc1", "solubility kinetic": 1.2}
{"smiles": "CCOc1ccc(-c2nc(N)ncc2-c2ccc(Cl)cc2)c(O)c1", "solubility kinetic": 0.9}
{"smiles": "O=C(CN1CCc2ccccc2C1)Nc1ccc(F)cc1F", "solubility kinetic": 28.5}
{"smiles": "NC(=O)C1CCN(C(=O)CCc2ccsc2)CC1", "solubility kinetic": "> 40"}
{"smiles": "c1ccc(CCN2CN=C(Nc3nc4ccccc4s3)NC2)cc1", "solubility kinetic": "< 0.1"}
{"smiles": "N#CCCN(Cc1cccs1)C(=O)c1ccc(Cl)cc1", "solubility kinetic": "> 45.7"}
{"smiles": "O=C(/C=C/c1cccs1)N1CCN(c2ccccc2)CC1", "solubility kinetic": 1.6}
{"smiles": "CCSS(=O)(=O)c1cccc2cccnc12", "solubility kinetic": "> 38"}
{"smiles": "O=C(COC(=O)c1cccnc1Cl)NC(=O)c1ccc(OC(F)F)cc1", "solubility kinetic": 10.1}
{"smiles": "O=C(Nc1ccncc1)Nc1ccc(Br)cc1Cl", "solubility kinetic": 1.9}
{"smiles": "COc1ccc(C2CC(=O)NC(=O)C2)cc1", "solubility kinetic": 22.3}
{"smiles": "COc1ccc(Cl)cc1Nc1nc(-c2cccnc2)cs1", "solubility kinetic": "< 0.2"}
{"smiles": "Cc1ccc(CN(C(=O)c2ccco2)C2CCS(=O)(=O)C2)cc1", "note": "(centres undefined)", "solubility kinetic": "> 50"}
{"smiles": "CCCCNC(=O)CSc1nc2ccc(C)cc2[nH]1", "solubility kinetic": "> 41.6"}
{"smiles": "Cc1cccn2c(=O)c3cc(C(=O)N4COCC4(C)C)sc3nc12", "solubility kinetic": 9.2}
{"smiles": "CCOC(=O)CNc1nc(Cl)nc(Nc2ccc(C)cc2)n1", "solubility kinetic": 0.5}
{"smiles": "COc1ccc(NS(=O)(=O)c2ccc3oc(=O)ccc3c2)cc1", "solubility kinetic": "> 49.7"}
{"smiles": "O=C(O)Cc1ccc(NCc2ccccc2Cl)cc1", "solubility kinetic": 28}
{"smiles": "Cn1cc(/C=C2\\C(=O)NC(=O)N(c3ccccc3)C2=O)c2ccccc21", "solubility kinetic": 1.6}
{"smiles": "Cc1ccccc1CC(=O)NC1CCCc2ccccc21", "note": "(centres undefined)", "solubility kinetic": 2.7}
{"smiles": "COc1ccc(CC(=O)Nc2ccc3nc(SC)sc3c2)cc1OC", "solubility kinetic": 34.3}
{"smiles": "CCn1c(C)nc2cc(S(=O)(=O)Nc3ccc(C)cc3)ccc21", "solubility kinetic": "> 49.4"}
{"smiles": "O=S(=O)(NC1CCCC1)c1cc(F)ccc1F", "solubility kinetic": "> 39.2"}
{"smiles": "O=C(CCc1nc2ccccc2s1)OCC(=O)c1ccc[nH]1", "solubility kinetic": 14.2}
{"smiles": "Cc1nc2ccccc2n1CC(O)c1ccccc1", "note": "(centres undefined)", "solubility kinetic": 33.9}
{"smiles": "O=C(/C=C/c1ccccc1)NC(=S)Nc1ccccc1", "solubility kinetic": "< 0.3"}
{"smiles": "O=C(CN1CCCCCC1)NCc1ccccc1", "solubility kinetic": 34.8}
{"smiles": "O=S(=O)(Nc1ccccn1)c1cc(Cl)ccc1Cl", "solubility kinetic": 9.2}
{"smiles": "O=S(=O)(Nc1ccc2c(c1)OCCO2)c1ccc(F)c(F)c1", "solubility kinetic": "> 49.1"}
{"smiles": "COc1ccc(NC(=O)CCC(=O)c2cc(C)sc2C)cc1", "solubility kinetic": 6.3}
{"smiles": "CCOc1ccccc1NC(=O)c1ccc([N+](=O)[O-])cc1", "solubility kinetic": 2.7}
{"smiles": "COc1cc(CN2CCC(Cc3ccccc3)CC2)c([N+](=O)[O-])cc1OC", "solubility kinetic": 33.5}
{"smiles": "O=C(O)CC(NS(=O)(=O)c1ccc2c(c1)OCCO2)c1ccccc1[N+](=O)[O-]", "note": "(centres undefined)", "solubility kinetic": "> 61.3"}
{"smiles": "Cc1cccc(CSc2nc3c(c(=O)n2C)SCC3)c1", "solubility kinetic": 11.6}
{"smiles": "O=C(Oc1ccc2ccc(=O)oc2c1)c1ccc([N+](=O)[O-])cc1", "solubility kinetic": 0.9}
{"smiles": "CC1C(=O)N2CCCc3cc(NC(=O)C4CCCCC4)cc1c32", "note": "(centres undefined)", "solubility kinetic": "> 46.9"}
{"smiles": "COc1cc(C(=O)NC(c2ccccc2)c2ccccc2)cc(OC)c1C", "solubility kinetic": "< 0.8"}
{"smiles": "C=C(C)c1cccc(C(C)(C)NC(=O)N2CCC(C(N)=O)CC2)c1", "solubility kinetic": "> 49.4"}
{"smiles": "O=C(C(=O)N1CCCC1)c1c[nH]c2ccccc12", "solubility kinetic": "> 36.3"}
{"smiles": "COc1ccc(C(=O)NCCc2ccccc2)cc1[N+](=O)[O-]", "solubility kinetic": "> 45"}
{"smiles": "COc1cccc(C(=O)OCC(=O)NCCCc2ccccc2)c1", "solubility kinetic": 12.1}
{"smiles": "N#Cc1ccc(NCCc2ccccn2)c([N+](=O)[O-])c1", "solubility kinetic": "> 40.2"}
{"smiles": "Cc1csc(SCC(=O)NC(C)c2ccc(F)cc2)n1", "note": "(centres undefined)", "solubility kinetic": 38.8}
{"smiles": "Nc1ncc([N+](=O)[O-])c(Oc2ccccc2F)n1", "solubility kinetic": "> 37.5"}
{"smiles": "CCCCCC(O)(CCN1CCCCC1)c1ccc(OCC)cc1.Cl", "note": "(centres undefined)", "solubility kinetic": 53.5}
{"smiles": "Nc1ccc2nc3c(c(Cl)c2c1)CCCC3", "solubility kinetic": 25.1}
{"smiles": "Cc1ccc(S(=O)(=O)N2CCOCC2)cc1NC(=O)COC(=O)Cc1ccccc1", "solubility kinetic": "> 64.9"}
{"smiles": "CCc1ccc(/C=C2/SC(N3CCOCC3)=NC2=O)cc1", "solubility kinetic": 26.5}
{"smiles": "CCCCCCn1cc(C(=O)OCC)c(=O)c2cc(F)c(F)cc21", "solubility kinetic": 43.6}
{"smiles": "CC1C(=O)N2CCCc3cc(NC(=O)CC(C)(C)C)cc1c32", "note": "(centres undefined)", "solubility kinetic": 39.7}
{"smiles": "COc1ccccc1NC(=O)c1ccc2nsnc2c1", "solubility kinetic": 39.6}
{"smiles": "Cc1cccc(N=C2CSC(=O)N2)c1", "solubility kinetic": "> 30.9"}
{"smiles": "Cc1cccc(C)c1NC(=S)N(CCN(C)C)C(C)c1ccccn1", "note": "(centres undefined)", "solubility kinetic": "> 53.5"}
{"smiles": "CC(=O)c1cn(Cc2ccccc2C#N)c2ccccc12", "solubility kinetic": 7}
{"smiles": "CCN1CCN(C(=S)NC(CC(=O)c2ccccc2)c2ccccc2)CC1", "note": "(centres undefined)", "solubility kinetic": 49.8}
{"smiles": "CC(C)(C)NC(=O)NC(=O)CSc1ncccn1", "solubility kinetic": "> 40.2"}
{"smiles": "CC(=O)Nc1ccc(S(=O)(=O)Nc2ccc3c(c2)OCO3)cc1", "solubility kinetic": "> 50.2"}
{"smiles": "O=C(NC(=S)NCCc1ccccc1)c1cccc(Cl)c1", "solubility kinetic": 0.6}
{"smiles": "CNc1cc(C)c(C#N)c2nc3ccccc3n12", "solubility kinetic": 2.6}
{"smiles": "Cc1nc(N(C)C)c2sc(=S)n(Cc3ccccc3)c2n1", "solubility kinetic": "< 0.2"}
{"smiles": "COc1ccc(NC(=O)CCN2C(=O)c3ccccc3C2=O)c(OC)c1", "solubility kinetic": 21.8}
{"smiles": "O=C(Nc1ccon1)Nc1ccc(F)cc1F", "solubility kinetic": "> 35.9"}
{"smiles": "O=C(COC(=O)/C=C/c1ccc([N+](=O)[O-])cc1)NC(=O)NC1CCCCC1", "solubility kinetic": 3.7}
{"smiles": "COc1ccc2oc(C(=O)OCC(=O)N3CCC(C)CC3)c(C)c2c1", "solubility kinetic": 41.8}
